Reference: patent publication US8236984B2, “Compound and use thereof in the treatment of amyloidosis” (Pentraxin Therapeutics Ltd., priority 2007, dated 2012)
Entries after “also recorded” stand apart in the source; their conditions may differ.

Legend:
[1] = Solubility as noted for calorimetry; type: physicochemical; conditions: in words, reason ITC could not be performed
V30M transthyretin = target: T1, V30M transthyretin (Homo sapiens, UniProt P02766, V50M); assay: Mass spectrometric analysis of ligand dissociation under increasing cone voltage; type: binding; conditions: equimolar 4.4 μM with wild type, 2 fold excess of ligand
T1 construct: made in house
From the text: 4.3. Mass spectrometric analysis of dissociation of 4ajm15 from wild type and amyloidogenic variant transthyretin. ESMS spectra were acquired under increasing cone voltage conditions to induce stepwise dissociation of the ligand from wild type transthyretin and amyloidogenic variants V30M and L55P transthyretin. As the cone voltage increases splitting becomes apparent in the tetramer peaks, corresponding to apo (protein alone) and holo (protein+ligand) transthyretin as ligand begins to dissociate.
The onset of ligand dissociation from V30M transthyretin occurs at the same energy level but the peak height corresponding to apo V30M transthyretin is lower than that for wild type (FIG. 17). Since these two species have very similar amino acid sequences (and therefore similar charging during MS ionisation) they are able to act as internal standards for each other. Therefore a lower peak height for apo V30M compared to apo WT is indicative of a lower proportion of apo V30M than apo WT. At increasing energy levels apo V30M is consistently lower relative to apo WT and as ligand dissociation from WT is complete, a proportion of holo V30M is still present.
V30M transthyretin and [^15N, ^13C] wild type transthyretin in a 2 fold excess of ligand. […]

transthyretin = target: T2, transthyretin (Homo sapiens, UniProt P02766); assay: Analytical ultracentrifugation (sedimentation velocity and equilibrium); type: biochemical
T2 construct: Native tetrameric transthyretin was purified from fractionated human plasma; from tissue; host or cells: human plasma
Experimental: 4.1. Analytical ultracentrifugation. Sedimentation velocity and equilibrium analytical centrifugation experiments were performed at 20° C. on a Beckman XL-I instrument equipped with an An50Ti rotor in which both absorbance (recorded at a wavelength of 280 nm) and interference scans were recorded simultaneously. Sedimentation analyses were performed at pH 4.4 by incubating the protein (3.6 μM) for 72 h under the conditions of the stagnant transthyretin aggregation-inhibition assay (Petrassi et al., 2000) in presence of the ligand (3.6 μM). […] Sedimentation velocity data were acquired over 8 h at rotor speed of 42,000 rpm in two-sector cells with solution column heights of 12 mm. Absorbance values were modelled as a continuous distribution of sedimentation coefficients, c(s) (Schuck, 2000) using the software SEDFIT (Schuck, 2005). Sedimentation equilibrium measurements of transthyretin bound to the ligand, in the same conditions used for the sedimentation velocity analysis, were acquired using six-sector cells in an AnTi 50 rotor with column heights of 2 mm at rotor speed of 17,000 rpm until equilibrium was reached as shown by the perfect overlay of runs measured at intervals of 5 h. A final run at 42,000 rpm was performed at the end of the experiment to determine the background levels for use in curve fitting. Data analysis was performed using Beckman software provided as an add-on to Origin Version 4.1 (Microcal Inc.) for which the partial specific volume was calculated to be 0.7353 ml/g from the amino acid sequence (Perkins, 1986). The buffer density and viscosity were calculated using the program […] (Laue et al., 1992). […] Sedimentation equilibrium analysis of transthyretin in the presence of the ligand was entirely consistent with a single species of mass 55,784±107.87 Da, in good agreement with the calculated molecular mass of tetrameric wild type transthyretin with bound 4ajm15 (55794 Da). […]

[2] = target: T3, thyroxine binding globulin (TBG) (Homo sapiens, UniProt P05543); assay: T4 displacement from T4 binding proteins in whole serum (agarose gel electrophoresis, densitometry); conditions: increasing concentrations of ligand
T3 construct: from tissue; host or cells: whole serum
T3 sequence (P05543 21-415): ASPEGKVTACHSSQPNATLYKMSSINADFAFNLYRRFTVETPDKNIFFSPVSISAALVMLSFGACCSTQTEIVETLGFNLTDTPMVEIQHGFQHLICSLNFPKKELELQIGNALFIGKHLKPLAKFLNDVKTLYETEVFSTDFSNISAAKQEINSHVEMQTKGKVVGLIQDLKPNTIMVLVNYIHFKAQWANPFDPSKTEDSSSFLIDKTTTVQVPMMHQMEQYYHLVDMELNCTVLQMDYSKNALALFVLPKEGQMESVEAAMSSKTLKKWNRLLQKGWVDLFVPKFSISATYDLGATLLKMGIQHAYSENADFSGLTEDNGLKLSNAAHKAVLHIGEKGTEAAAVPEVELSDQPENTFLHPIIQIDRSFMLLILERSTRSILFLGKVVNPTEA
From the text: 3.2.3.3. […] After the electrophoresis, the proteins were transferred by capillary diffusion to a nitrocellulose membrane and subjected to phosphor imaging (Typhoon 8600; […], Amersham Biosciences). The two known T4-binding proteins, transthyretin and thyroxine binding globulin (TBG), were distinctly visualized, while albumin binding appears as a radioactive smear between them.

[3] = target: L55P variant transthyretin (Homo sapiens, UniProt P02766, L75P); assay: Differential scanning calorimetry of transthyretin with ligand; type: binding; conditions: five fold molar excess of ligand

| SMILES | solubility [1] | peak height of apo V30M transthyretin at onset of dissociation (spectrum β) (V30M transthyretin) [%] | sedimentation coefficient of transthyretin with bound ligand (transthyretin; 3.6 μM protein, 3.6 μM ligand, 72 h 37° C., pH 4.4) [S] | mass of single species by sedimentation equilibrium (transthyretin; 3.6 μM protein, 3.6 μM ligand, pH 4.4) | quaternary structure under tetramer-dissociating conditions (transthyretin; 72 h at 37° C. and pH 4.4) | effect on binding of T4 by TBG [2] | Tm of L55P variant transthyretin with the ligand [3] [°C] | increase in Tm of L55P variant transthyretin [3] [°C] |
| --- | --- | --- | --- | --- | --- | --- | --- | --- |
| O=C(O)c1ccccc1Nc1cc(Cl)c(OCCCCCCCCCCCOc2c(Cl)cc(Nc3ccccc3C(=O)O)cc2Cl)c(Cl)c1 [4ajm15, 2,2′-(4,4′-(undecane-1,11-diylbis(oxy))bis(3,5-dichloro-4,1-phenylene))bis(azanediyl)dibenzoic acid] | limited solubility; also recorded: too insoluble | ~45 | 3.7 | 55,784±107.87 Da | remains tetrameric | did not affect | – | – |
| O=C(O)c1ccccc1Nc1cc(Cl)c(OCCCCCCCOc2c(Cl)cc(Nc3ccccc3C(=O)O)cc2Cl)c(Cl)c1 [mds84, 2,2′-(4,4′-(heptane-1,7-diylbis(oxy))bis(3,5-dichloro-4,1-phenylene))bis(azanediyl)dibenzoic acid] | – | – | – | – | – | – | 98.3 | 5.9 |
